Our source for the In vivo activity and IC50 values is patent US9999616B2 (ZENITH EPIGENETICS LTD., priority 2013, dated 2018).

Some results are limits rather than exact numbers.

Assay [1] can be described thus: In vivo efficacy in rat collagen-induced arthritis. Conditions: female Lewis rats, dosed Day 11 to Day 17. The method, then:
Rat collagen-induced arthritis is an experimental model of polyarthritis that has been widely used for preclinical testing of numerous anti-arthritic agents. Following administration of collagen, this model establishes a measurable polyarticular inflammation, marked cartilage destruction in association with pannus formation and mild to moderate bone resorption and periosteal bone proliferation. In this model, collagen was administered to female Lewis strain of rats on Day 1 and 7 of study and dosed with compounds from Day 11 to Day 17. Test compounds were administered at 25 mg/kg to 120 mg/kg b.i.d and 7.5 mg/kg to 30 mg/kg q.d dose to assess the potential to inhibit the inflammation (including paw swelling), cartilage destruction and bone resorption in arthritic rats, using a model in which the treatment is administered after the disease has been established.

Another assay relates to hIL-6 mRNA. The assay is described as follows: Inhibition of hIL-6 mRNA transcription in LPS-stimulated U937 macrophages. The class given is cell-based, Human. Conditions: Homo sapiens, U-937, PMA-differentiated U937 cells, 1 h pretreatment, LPS 3 h, read-out: IL-6 activity. A digest of the protocol:
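PMA-differentiated U937 macrophages (60 ng/mL PMA, 3 days) pretreated 1 h with compound in 0.1% DMSO, then stimulated with 1 ug/mL E. coli LPS for 3 h at 37° C. IL-6 mRNA quantified by one-step TaqMan qRT-PCR, normalized to cyclophilin; fold expression relative to control, triplicate wells.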

Another assay deals with Human AML MV-4-11 cells. Nature of the assay: Inhibition of cell proliferation in MV4-11 cells (CellTiter Aqueous One). The class given is cell-based. Conditions: MV4-11, 72 h. Put shortly:
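MV4-11 cells, 5×10^4 per well in IMDM with 10% FBS, were exposed to increasing compound concentrations or 0.1% DMSO for 72 h at 37 °C in triplicate. Viability was read by MTS (CellTiter Aqueous One) absorbance at 490 nm after 3-4 h. IC50 was derived from background-corrected signal relative to DMSO.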

The test system of a further assay is hIL-17 mRNA. Nature of the assay: Inhibition of hIL-17 mRNA transcription in OKT3-stimulated peripheral blood mononuclear cells. The class given is cell-based. Conditions: human PBMC, OKT3 stimulation 6 h, read-out: IL-17 Activity. Put shortly:
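Human PBMCs in IL-2 (20 ng/ml) medium preincubated 1 h with compound or 0.1% DMSO, then OKT3-stimulated for 6 h at 37 °C. hIL-17 mRNA quantified by one-step TaqMan qRT-PCR, normalized to an internal control, as fold induction relative to control.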

The nature of assay [2]: In vivo efficacy in experimental autoimmune encephalomyelitis (EAE) model of MS. Set-up: species or system mouse. Conditions: female C57Bl/6 mice, 50 to 125 mg/kg b.i.d. The source says: Experimental autoimmune encephalomyelitis (EAE) is a T-cell-mediated autoimmune disease of the CNS which shares many clinical and histopathological features with human multiple sclerosis (MS). EAE is the most commonly used animal model of MS. […] Cytokines IL-23, IL-6 and IL-17, which are either critical for Th1 and Th17 differentiation or produced by these T cells, play a critical and non-redundant role in EAE development. Therefore, drugs targeting production of these cytokines are likely to have therapeutic potential in treatment of MS.
Compounds of Formula I were administered at 50 to 125 mg/kg b.i.d. from time of immunization to EAE mice to assess anti-inflammatory activity. In this model, EAE is induced by MOG35-55/CFA immunization and pertussis toxin injection in female C57Bl/6 mice.

Assay [3] relates to TH1, Th2 and Th17 cytokines. The assay is described as follows: Ex vivo effects on T cell function from splenocyte and lymphocyte cultures stimulated with external MOG. The assay is classed as in vivo, mouse. Conditions: MOG stimulation 72 hours, mice treated 11 days b.i.d. The method, then: Mice were immunized with MOG/CFA and simultaneously treated with the compound for 11 days on a b.i.d regimen. Inguinal Lymph node and spleen were harvested, cultures were set up for lymphocytes and splenocytes and stimulated with external antigen (MOG) for 72 hours. Supernatants from these cultures were analyzed for TH1, Th2 and Th17 cytokines using a Cytometric Bead Array assay.

The subject of assay [4] is IL-6 and IL-17 and MCP-1 cytokines. Nature of the assay: In vivo efficacy in mouse endotoxemia model. Conditions: C57/Bl6 mice, 75 mg/kg oral, LPS 0.5 mg/kg i.p. As for the experimental part: Sub lethal doses of Endotoxin (E. Coli bacterial lipopolysaccharide) are administered to animals to produce a generalized inflammatory response which is monitored by increases in secreted cytokines. Compounds are administered to C57/Bl6 mice at T=4 hours orally at 75 mg/kg dose to evaluate inhibition in IL-6 and IL-17 and MCP-1 cytokines post 3-h challenge with lipopolysaccharide (LPS) at T=0 hours at 0.5 mg/kg dose intraperitoneally.

In the case of `Cc1nc2c(-c3cccnc3C)cc(-c3c(C)noc3C)cc2[nH]1` [Example Compound 41, 3,5-dimethyl-4-(2-methyl-4-(2-methylpyridin-3-yl)-1H-benzo[d]imidazol-6-yl)isoxazole], the In vivo activity entry in assay [1] is reported as “Active”. Also, the IC50 in the assay on hIL-6 mRNA is not above 300 nM; in the assay on Human AML MV-4-11 cells, 300 to 3000 nM; with hIL-17 mRNA, 300 to 3000 nM.

On to `Cc1nc2c(-c3c(C)noc3C)cc(-c3c(C)noc3C)cc2[nH]1` [Example Compound 6, 4,4′-(2-methyl-1H-benzo[d]imidazole-4,6-diyl)bis(3,5-dimethylisoxazole)], for which the In vivo activity result in assay [2] and in assay [3] was “Active” each time. Besides, the IC50 in the assay on hIL-6 mRNA is 300 to 3000 nM; in the assay on Human AML MV-4-11 cells it was 300 to 3000 nM; in the assay on hIL-17 mRNA, not above 300 nM.

`Cc1nc2c(-c3c(C)nn(C)c3C)cc(-c3c(C)noc3C)cc2[nH]1` [Example Compound 49, 3,5-dimethyl-4-(2-methyl-4-(1,3,5-trimethyl-1H-pyrazol-4-yl)-1H-benzo[d]imidazol-6-yl)isoxazole]: the IC50 with hIL-6 mRNA was not above 300 nM; with Human AML MV-4-11 cells, 300 to 3000 nM; in the assay with hIL-17 mRNA it was not above 300 nM.

As for `Cc1noc(C)c1-c1cc(-c2c(C)noc2C)c2nc[nH]c2c1` [Example Compound 1, 4,4′-(1H-benzo[d]imidazole-4,6-diyl)bis(3,5-dimethylisoxazole)], the In vivo activity result in assay [2], in assay [1], in assay [4] and in assay [3] was “Active” each time. For the same molecule, the IC50 was not above 300 nM with hIL-6 mRNA, 300 to 3000 nM in the assay with Human AML MV-4-11 cells and 300 to 3000 nM in the assay with hIL-17 mRNA.
